Test results from US20030104089A1, “Minari extract for preventing the induction and metastasis of cancer by carcinogens contained in cigarette smoke, fermented foods or alcoholic drinks” (priority 2000, published 2003).

How the values were obtained:
[1] = tested on: PCNA (proliferative cell nuclear antigen); assay: PCNA expression in lung tissue of NNK-treated A/J mice; type: in vivo; conditions: single i.p. NNK 4 mg, normal feed, 4 months, compared to water-only-receiving group
Description: The NNK group received a single administration of 4 mg of NNK. The group receiving NNK-Minari received a single administration of NNK and thereafter a feed to which Minari extract was added at a 1.25% (w/w) concentration. The other group received a normal feed. All the groups were allowed take, ad lib., their feeds for 4 months.
A/J mice were divided into three experimental groups: a single intraperitoneal water administration-receiving (+normal feed) group; a single intraperitoneal NNK (4 mg) administration-receiving (+normal feed) group; and a single intraperitoneal NNK administration-receiving (+feed to which Minari extract is added at a concentration of 1.25%) group. Four months later, the expression level of PCNA in each experimental group was measured.

[2] = humans, calculated; cited from earlier work

Compound | expression level of PCNA [1] | virtually safe dose (VSD) for liver cancer [2] | virtually safe dose (VSD) for lung cancer [2]
CN(CCCC(=O)c1cccnc1)N=O [NNK, {(4-N-methyl-N-nitrosoamino)-1-(3-pyridyl)-1-butanone}] | significantly increased | – | –
CCOC(N)=O [urethane, ethylcarbamate] | – | 7.2×10^−5 mg/kg body weight | 1.8×10^−4 mg/kg body weight
